Source: ChEMBL document CHEMBL5465560, “Selectivity Literature for EUbOPEN Chemogenomic Library” (2024)
Values belong to the compound of their own block, whether it stands above or below them.

Key:
[1] = target: T1, Serine/threonine-protein kinase BRSK1 (Homo sapiens) (UniProt Q8TDC3); assay: Selectivity interaction (KinomeScan (DiscoverX)) EUB0000655a BRSK1; details: at 10 µM
T1 sequence (whole entry): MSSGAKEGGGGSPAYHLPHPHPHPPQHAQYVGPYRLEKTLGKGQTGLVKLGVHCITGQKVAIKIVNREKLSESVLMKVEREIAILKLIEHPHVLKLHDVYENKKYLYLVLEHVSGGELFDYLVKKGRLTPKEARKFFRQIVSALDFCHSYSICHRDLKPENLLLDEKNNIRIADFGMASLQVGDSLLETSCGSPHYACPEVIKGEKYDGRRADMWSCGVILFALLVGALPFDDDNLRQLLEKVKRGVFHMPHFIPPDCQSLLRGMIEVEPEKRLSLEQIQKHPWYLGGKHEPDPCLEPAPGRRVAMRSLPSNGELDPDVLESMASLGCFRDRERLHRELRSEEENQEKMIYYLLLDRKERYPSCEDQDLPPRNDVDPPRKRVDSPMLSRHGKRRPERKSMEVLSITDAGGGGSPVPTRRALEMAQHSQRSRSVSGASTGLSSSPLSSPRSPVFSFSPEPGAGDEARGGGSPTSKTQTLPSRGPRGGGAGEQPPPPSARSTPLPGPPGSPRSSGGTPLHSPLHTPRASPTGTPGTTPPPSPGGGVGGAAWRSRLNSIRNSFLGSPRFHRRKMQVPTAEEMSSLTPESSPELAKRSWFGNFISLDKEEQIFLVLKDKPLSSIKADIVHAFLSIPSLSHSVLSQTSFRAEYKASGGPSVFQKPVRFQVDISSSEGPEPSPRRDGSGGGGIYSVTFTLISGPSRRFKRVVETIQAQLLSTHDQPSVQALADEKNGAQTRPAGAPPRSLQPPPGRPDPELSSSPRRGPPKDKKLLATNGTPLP

[2] = target: Glycogen synthase kinase-3 alpha (Homo sapiens, UniProt P49840); assay: Selectivity interaction (KinomeScan (DiscoverX)) EUB0000655a GSK3A; details: at 10 µM
[3] = target: Receptor tyrosine-protein kinase erbB-3 (Homo sapiens) (UniProt P21860); assay: Selectivity interaction (KinomeScan (DiscoverX)) EUB0001079a ERBB3; details: at 1 µM
[4] = target: D(3) dopamine receptor (Homo sapiens, UniProt P35462); assay: Selectivity interaction (GPCR panel (PDSP screen)) EUB0001079a DRD3; details: at 10 µM
[5] = target: cAMP-dependent protein kinase catalytic subunit beta (Homo sapiens) (UniProt P22694); assay: Selectivity interaction (KinomeScan (DiscoverX)) EUB0000618a PRKACB; details: at 10 µM
[6] = target: Hepatocyte growth factor receptor (Homo sapiens, UniProt P08581); assay: (§1) Selectivity interaction (SelectScreen profiling (Invitrogen)) EUB0000607a MET; details: at 2 µM
[7] = test system: Hepatocyte growth factor receptor (Homo sapiens), P08581 [M1250T]; assay: as §1; details: at 2 µM
[8] = target: T2, Membrane-associated tyrosine- and threonine-specific cdc2-inhibitory kinase (Homo sapiens) (UniProt Q99640); assay: Selectivity interaction (KinomeScan (DiscoverX)) EUB0001619a PKMYT1; details: at 1 µM
T2 sequence (whole entry): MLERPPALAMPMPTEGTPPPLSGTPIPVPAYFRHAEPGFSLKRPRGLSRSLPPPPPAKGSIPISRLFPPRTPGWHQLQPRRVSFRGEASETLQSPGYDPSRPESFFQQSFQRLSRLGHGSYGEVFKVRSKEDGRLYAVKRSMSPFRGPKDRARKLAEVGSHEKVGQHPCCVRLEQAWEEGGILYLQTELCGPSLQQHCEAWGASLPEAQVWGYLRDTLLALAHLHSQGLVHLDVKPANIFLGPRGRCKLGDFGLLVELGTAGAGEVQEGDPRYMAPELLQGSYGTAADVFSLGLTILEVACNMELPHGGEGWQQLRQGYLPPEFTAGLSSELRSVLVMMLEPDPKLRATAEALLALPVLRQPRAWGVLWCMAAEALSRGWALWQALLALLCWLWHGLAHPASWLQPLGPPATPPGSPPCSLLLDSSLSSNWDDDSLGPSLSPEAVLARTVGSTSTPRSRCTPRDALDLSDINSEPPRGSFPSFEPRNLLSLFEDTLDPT

[9] = target: CDK4/Cyclin D3 (Homo sapiens) (UniProt P11802+P30281); details: at 10 µM
[10] = target: Mitogen-activated protein kinase 11 (Homo sapiens) (UniProt Q15759); assay: Selectivity interaction (ActivX KiNativ screen (kinase selectivity in THP-1 cell lysates)) EUB0000639a MAPK11; format: subcellular; details: lysate
[11] = target: STE20/SPS1-related proline-alanine-rich protein kinase (Homo sapiens) (UniProt Q9UEW8); assay: Selectivity interaction (ProQinase) EUB0000171b STK39
[12] = target: Cyclin-dependent kinase 11A (Homo sapiens, UniProt Q9UQ88); assay: Selectivity interaction (Kinase panel (Invitrogen, enzymatic assay)) EUB0000162b CDK11A
[13] = target: Myosin light chain kinase, smooth muscle (Homo sapiens, UniProt Q15746); assay: Selectivity interaction (Kinase panel (Invitrogen, enzymatic assay)) EUB0000162b MYLK
[14] = target: Aurora kinase B (Homo sapiens, UniProt Q96GD4); assay: Selectivity interaction (Panel of kinases, GPCRs, ion channels and transporters (enzymatic assay)) EUB0000266bCl AURKB
[15] = target: T3, Phosphorylase b kinase gamma catalytic chain, liver/testis isoform (Homo sapiens) (UniProt P15735); assay: Selectivity interaction (Kinase panel (Z-LYTE Assay)) EUB0001632a PHKG2; details: at 10 µM
T3 sequence (whole entry): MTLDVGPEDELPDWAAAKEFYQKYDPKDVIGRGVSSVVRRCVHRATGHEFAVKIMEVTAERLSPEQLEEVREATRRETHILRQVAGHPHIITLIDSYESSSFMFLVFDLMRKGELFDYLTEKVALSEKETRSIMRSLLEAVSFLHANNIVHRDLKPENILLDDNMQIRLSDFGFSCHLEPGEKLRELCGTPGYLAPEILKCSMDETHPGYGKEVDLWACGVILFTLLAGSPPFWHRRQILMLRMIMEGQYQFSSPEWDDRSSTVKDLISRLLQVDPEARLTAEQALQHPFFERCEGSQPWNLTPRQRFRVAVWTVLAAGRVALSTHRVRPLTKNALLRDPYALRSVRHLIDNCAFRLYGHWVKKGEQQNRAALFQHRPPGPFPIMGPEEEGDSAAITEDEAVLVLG

[16] = target: Mitogen-activated protein kinase kinase kinase 8 (Homo sapiens, UniProt P41279); assay: Selectivity interaction (Kinase panel (Z-LYTE Assay)) EUB0001632a MAP3K8; details: at 10 µM
[17] = target: CDK1/Cyclin A (Homo sapiens, UniProt P06493+P20248+P78396); assay: Selectivity interaction (Enzymatic assay (Reaction Biology)) EUB0001632a CDK1; format: protein-complex assay

Sequence of Mitogen-activated protein kinase 11 (Homo sapiens) (Q15759 whole entry): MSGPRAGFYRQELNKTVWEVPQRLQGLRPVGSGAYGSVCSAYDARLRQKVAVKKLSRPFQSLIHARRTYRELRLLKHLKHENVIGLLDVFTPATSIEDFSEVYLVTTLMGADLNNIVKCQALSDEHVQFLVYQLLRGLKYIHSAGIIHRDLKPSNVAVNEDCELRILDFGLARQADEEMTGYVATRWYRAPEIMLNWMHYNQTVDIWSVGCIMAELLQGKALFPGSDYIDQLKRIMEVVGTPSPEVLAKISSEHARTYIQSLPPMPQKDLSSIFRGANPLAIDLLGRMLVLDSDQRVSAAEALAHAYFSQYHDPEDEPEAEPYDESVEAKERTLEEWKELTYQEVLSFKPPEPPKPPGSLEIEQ
Sequence of Hepatocyte growth factor receptor (P08581 whole entry): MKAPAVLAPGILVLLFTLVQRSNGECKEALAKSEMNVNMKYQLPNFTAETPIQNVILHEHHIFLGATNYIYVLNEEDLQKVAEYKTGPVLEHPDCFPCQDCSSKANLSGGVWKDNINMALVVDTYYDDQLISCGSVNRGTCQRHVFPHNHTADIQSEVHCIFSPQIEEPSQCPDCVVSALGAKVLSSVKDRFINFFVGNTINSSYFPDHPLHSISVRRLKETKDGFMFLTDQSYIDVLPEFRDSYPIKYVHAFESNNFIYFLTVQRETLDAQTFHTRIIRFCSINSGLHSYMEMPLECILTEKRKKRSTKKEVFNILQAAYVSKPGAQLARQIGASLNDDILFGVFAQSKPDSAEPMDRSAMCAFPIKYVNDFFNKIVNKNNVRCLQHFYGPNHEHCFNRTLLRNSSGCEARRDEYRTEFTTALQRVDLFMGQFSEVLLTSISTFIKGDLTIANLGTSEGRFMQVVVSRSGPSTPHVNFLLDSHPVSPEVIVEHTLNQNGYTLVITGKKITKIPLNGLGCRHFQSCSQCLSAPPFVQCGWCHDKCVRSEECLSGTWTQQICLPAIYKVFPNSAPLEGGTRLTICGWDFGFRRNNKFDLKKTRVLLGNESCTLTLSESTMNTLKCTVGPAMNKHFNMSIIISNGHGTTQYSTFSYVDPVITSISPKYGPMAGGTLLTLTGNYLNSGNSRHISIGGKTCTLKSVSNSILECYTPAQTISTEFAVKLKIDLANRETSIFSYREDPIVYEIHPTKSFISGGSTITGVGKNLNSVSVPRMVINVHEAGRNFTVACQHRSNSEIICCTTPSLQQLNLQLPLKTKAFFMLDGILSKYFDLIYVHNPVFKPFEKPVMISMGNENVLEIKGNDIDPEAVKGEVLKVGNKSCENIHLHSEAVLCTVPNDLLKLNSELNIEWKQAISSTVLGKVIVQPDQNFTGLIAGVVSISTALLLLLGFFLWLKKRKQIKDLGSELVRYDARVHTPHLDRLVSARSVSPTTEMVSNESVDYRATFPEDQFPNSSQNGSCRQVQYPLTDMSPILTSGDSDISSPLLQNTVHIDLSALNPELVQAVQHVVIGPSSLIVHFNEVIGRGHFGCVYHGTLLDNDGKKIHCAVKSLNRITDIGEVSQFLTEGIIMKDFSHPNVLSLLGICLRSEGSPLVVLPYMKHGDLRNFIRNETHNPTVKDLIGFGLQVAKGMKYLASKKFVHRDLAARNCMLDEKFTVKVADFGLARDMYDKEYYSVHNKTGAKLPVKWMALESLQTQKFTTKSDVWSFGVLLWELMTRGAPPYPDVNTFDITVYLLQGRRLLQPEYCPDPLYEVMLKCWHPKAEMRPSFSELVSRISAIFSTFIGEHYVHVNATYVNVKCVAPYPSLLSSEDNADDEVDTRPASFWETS
Sequence of Mitogen-activated protein kinase kinase kinase 8 (P41279 whole entry): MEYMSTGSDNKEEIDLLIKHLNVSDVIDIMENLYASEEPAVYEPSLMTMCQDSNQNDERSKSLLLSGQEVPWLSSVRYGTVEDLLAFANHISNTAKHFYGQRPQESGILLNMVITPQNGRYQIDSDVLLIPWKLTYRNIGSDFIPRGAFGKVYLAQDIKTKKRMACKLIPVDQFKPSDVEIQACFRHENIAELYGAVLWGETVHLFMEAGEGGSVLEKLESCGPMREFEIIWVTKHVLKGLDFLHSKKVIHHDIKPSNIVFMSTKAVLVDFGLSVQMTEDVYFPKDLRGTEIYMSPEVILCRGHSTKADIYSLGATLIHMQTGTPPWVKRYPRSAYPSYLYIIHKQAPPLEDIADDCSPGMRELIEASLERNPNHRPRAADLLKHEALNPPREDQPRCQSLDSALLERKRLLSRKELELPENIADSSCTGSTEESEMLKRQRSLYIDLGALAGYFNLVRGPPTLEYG
Sequence of Myosin light chain kinase, smooth muscle (Q15746 whole entry): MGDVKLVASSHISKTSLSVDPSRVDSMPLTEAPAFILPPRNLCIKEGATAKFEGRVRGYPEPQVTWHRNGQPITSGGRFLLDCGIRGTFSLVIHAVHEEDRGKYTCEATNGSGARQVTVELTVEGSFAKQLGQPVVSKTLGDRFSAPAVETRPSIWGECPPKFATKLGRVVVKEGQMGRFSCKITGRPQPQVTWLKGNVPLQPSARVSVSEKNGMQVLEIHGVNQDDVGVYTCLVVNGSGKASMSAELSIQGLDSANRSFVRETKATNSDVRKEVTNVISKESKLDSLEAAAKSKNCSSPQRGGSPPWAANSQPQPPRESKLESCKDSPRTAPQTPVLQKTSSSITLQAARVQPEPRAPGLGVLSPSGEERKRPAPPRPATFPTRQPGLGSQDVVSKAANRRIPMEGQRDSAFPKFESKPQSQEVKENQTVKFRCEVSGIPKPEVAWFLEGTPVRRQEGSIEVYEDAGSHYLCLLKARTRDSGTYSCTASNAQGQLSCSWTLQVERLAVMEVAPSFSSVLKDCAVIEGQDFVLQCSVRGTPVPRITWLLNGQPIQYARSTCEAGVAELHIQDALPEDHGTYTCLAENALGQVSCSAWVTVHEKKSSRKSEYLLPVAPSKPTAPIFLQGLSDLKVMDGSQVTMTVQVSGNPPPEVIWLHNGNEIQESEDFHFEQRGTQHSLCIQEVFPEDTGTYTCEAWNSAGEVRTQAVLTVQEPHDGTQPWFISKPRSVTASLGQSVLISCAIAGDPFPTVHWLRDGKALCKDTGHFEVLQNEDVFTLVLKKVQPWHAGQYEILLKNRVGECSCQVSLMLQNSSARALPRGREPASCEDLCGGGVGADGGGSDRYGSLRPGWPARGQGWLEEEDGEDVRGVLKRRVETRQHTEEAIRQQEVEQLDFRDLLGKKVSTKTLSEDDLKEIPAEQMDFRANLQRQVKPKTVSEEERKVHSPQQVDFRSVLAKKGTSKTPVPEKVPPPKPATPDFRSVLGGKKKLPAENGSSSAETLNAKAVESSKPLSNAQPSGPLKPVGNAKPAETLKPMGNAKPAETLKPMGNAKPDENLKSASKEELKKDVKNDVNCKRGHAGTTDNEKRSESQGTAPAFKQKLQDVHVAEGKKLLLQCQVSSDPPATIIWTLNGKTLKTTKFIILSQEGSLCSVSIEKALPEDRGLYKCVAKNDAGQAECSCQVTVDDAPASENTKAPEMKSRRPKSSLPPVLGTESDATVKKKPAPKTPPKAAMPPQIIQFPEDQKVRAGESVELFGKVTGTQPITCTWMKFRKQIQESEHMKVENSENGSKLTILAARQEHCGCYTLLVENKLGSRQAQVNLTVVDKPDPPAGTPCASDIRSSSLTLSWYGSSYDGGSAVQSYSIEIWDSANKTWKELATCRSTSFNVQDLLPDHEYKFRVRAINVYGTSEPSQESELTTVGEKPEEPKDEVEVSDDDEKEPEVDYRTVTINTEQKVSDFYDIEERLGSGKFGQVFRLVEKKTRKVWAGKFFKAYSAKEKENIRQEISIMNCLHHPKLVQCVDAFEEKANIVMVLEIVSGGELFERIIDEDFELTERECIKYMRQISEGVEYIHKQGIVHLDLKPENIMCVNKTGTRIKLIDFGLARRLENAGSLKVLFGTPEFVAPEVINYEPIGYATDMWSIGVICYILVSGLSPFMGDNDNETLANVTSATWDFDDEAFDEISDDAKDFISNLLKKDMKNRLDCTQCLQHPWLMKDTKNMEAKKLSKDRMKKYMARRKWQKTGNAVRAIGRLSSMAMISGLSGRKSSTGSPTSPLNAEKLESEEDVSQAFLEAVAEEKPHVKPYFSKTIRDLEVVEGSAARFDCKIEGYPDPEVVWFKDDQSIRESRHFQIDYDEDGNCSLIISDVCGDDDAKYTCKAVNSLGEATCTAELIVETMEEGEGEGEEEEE
Sequence of Aurora kinase B (Q96GD4 whole entry, canonical isoform): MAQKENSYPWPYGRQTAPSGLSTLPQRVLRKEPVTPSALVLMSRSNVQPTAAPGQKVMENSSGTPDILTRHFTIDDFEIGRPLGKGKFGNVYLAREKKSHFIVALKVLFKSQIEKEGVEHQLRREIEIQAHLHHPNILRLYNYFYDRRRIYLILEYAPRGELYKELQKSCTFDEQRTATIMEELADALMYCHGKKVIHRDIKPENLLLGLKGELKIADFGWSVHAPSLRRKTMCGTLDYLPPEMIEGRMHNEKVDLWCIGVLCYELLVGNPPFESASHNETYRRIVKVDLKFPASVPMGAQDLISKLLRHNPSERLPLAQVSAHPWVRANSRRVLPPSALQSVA
Sequence of Glycogen synthase kinase-3 alpha (P49840 2-483 limits assumed): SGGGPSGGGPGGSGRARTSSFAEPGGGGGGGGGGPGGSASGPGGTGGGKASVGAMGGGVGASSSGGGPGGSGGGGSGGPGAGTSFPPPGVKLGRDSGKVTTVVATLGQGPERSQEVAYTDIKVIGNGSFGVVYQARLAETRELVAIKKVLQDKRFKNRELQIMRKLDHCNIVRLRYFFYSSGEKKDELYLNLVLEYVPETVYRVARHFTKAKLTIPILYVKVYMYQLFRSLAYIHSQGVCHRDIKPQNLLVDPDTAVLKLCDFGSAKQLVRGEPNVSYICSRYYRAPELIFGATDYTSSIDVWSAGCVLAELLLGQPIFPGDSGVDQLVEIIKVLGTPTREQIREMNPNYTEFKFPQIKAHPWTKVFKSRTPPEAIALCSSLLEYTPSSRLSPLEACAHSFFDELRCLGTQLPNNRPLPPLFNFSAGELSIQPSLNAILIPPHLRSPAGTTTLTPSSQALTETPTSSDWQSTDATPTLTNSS

Compound: CN(C)CCOc1ccc(-c2nc(-c3ccncc3)c(-c3ccc4c(c3)CC/C4=N\O)[nH]2)cc1
% of control [1]: 76%
% of control [2]: 100%

Compound: Nc1cnc(N2CCc3cc(S(=O)(=O)Nc4c(F)cc(Cl)cc4F)cc(N4CCCC4=O)c32)nc1 [TP-020n]
% of control [3]: 100%
% of inhibition [4]: 7.41%

Compound: O[C@H]1CC[C@H](Nc2ncc3nc(Nc4c(F)cc(F)cc4F)n([C@H]4CCOC4)c3n2)CC1
% of control [5]: 100%

Compound: CNC(=O)Nc1ccc(-c2nc(N3CC4CCC(C3)O4)c3cnn(C4CCC5(CC4)OCCO5)c3n2)cc1
% of inhibition [6]: 2%
% of inhibition [7]: 1%

Compound: N#Cc1cccc(-c2c[nH]c3ncnc(N4CCOCC4)c23)c1
% of control [8]: 73%

Compound: Cc1cc([C@@H](C)Nc2ccccc2C(=O)O)c2nc(N3CCOCC3)cc(=O)n2c1 [AZD-6482]
% of control [9]: 100%

% of inhibition ([10]; at 0.01 µM): -7.8%
% of inhibition ([10]; at 0.04 µM): -35.7%
% of inhibition ([10]; at 0.2 µM): -16.6%
% of inhibition ([10]; at 1 µM): -3.6%
% of inhibition ([10]; at 5 µM): -19.3%
Compound: CC[C@@H]1[C@H](F)C(=O)N[C@@H]1COc1nccc2cc(C(N)=O)c(OC)cc12 [ZIMLOVISERTIB]

% of control ([11]; at 1 µM): 100%
% of control ([11]; at 5 µM): 73%
Compound: C=CC(=O)Nc1cccc(C(=O)Nc2ccc(Nc3cc(-c4[nH]c(SC)nc4C)ccn3)cc2)c1

IC50 [12]: 1.7 nM
IC50 [13]: 531 nM
Compound: CN(C)C(=O)Cn1cc(-c2ccc(-c3cncc4ccccc34)cc2)cn1

pXC50 [14]: < 4.5 M
Compound: CCn1c(-c2nc3cc(C(=O)N4CCCC(N)C4)ccc3n2C)cc2ccccc21 (configuration not stated)

% of control [15]: 4.25%
% of control [16]: 4.18%
IC50 [17]: > 10 µM
Compound: Cn1cc(-n2cnc3c(NCc4nc5cc(Cl)c(Cl)cc5[nH]4)nc(N4CCOCC4)nc32)cn1
